Experimental data taken from ChEMBL document CHEMBL1201862, “PubChem BioAssay data set” (2004).
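Assay format: 96-well plates, 48-hour exposure. Here, GI50 denotes the concentration required for 50% inhibition of growth.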 Activity calls are given as the source filed them. Cut-off read from the data, not from the text of the source: active = GI50 up to about 1.1 µM and inactive = higher.

Tests used:
Assay in all cases: inhibition of tumour cell growth, NCI panel, 48 h
SNB-19 = system: SNB-19
SK-MEL-5 = system: SK-MEL-5
OVCAR-5 = system: OVCAR-5
HT-29 = system: HT-29
TK-10 = system: TK-10
HCT-15 = system: HCT-15
MDA-MB-435 = system: MDA-MB-435
Malme-3M = system: Malme-3M
EKVX = system: EKVX
A498 = system: A498
Hs-578T = system: Hs-578T
A549 = system: A549
UACC-257 = system: UACC-257
KM12 = system: KM12
SK-OV-3 = system: SK-OV-3
786-0 = system: 786-0
M14 = system: M14
CAKI-1 = system: CAKI-1
NCI-H522 = system: NCI-H522
SR = system: SR

SMILES | GI50 (SNB-19) | GI50 (SK-MEL-5) | GI50 (OVCAR-5) | GI50 (HT-29) | GI50 (TK-10) | GI50 (HCT-15) | GI50 (MDA-MB-435) | GI50 (Malme-3M) | GI50 (EKVX) | GI50 (A498) | GI50 (Hs-578T) | GI50 (A549) | GI50 (UACC-257) | GI50 (KM12) | GI50 (SK-OV-3) | GI50 (786-0) | GI50 (M14) | GI50 (CAKI-1) | GI50 (NCI-H522) | GI50 (SR)
N#CC(C#N)=C(N)/C(C#N)=C/c1ccc2ccccc2n1 | 24.3 µM (inactive) | 23.8 µM (inactive) | > 100 µM (inactive) | 18.6 µM (inactive) | > 100 µM (inactive) | 28.8 µM | 30.5 µM (inactive) | 96.8 µM (inactive) | > 100 µM (inactive) | > 100 µM (inactive) | 21.7 µM (inactive) | > 100 µM (inactive) | 48.8 µM (inactive) | 19.5 µM (inactive) | 35.3 µM (inactive) | 17.9 µM (inactive) | 33.7 µM (inactive) | 22.6 µM (inactive) | – | –
C=CC[C@@H](N)C(=O)N(C)[C@@H](C)[C@@H](O)c1ccccc1 | > 100 µM (inactive) | > 100 µM (inactive) | – | – | > 100 µM (inactive) | > 100 µM | > 100 µM (inactive) | – | – | > 100 µM (inactive) | > 100 µM (inactive) | > 100 µM (inactive) | > 100 µM (inactive) | > 100 µM (inactive) | > 100 µM (inactive) | > 100 µM (inactive) | > 100 µM (inactive) | > 100 µM (inactive) | 12.4 µM (inactive) | –
CCOC(=O)C(C)c1nc2cc(C(F)(F)F)ccc2[nH]c1=O (stereo unspecified) | > 100 µM (inactive) | 42.2 µM (inactive) | > 100 µM (inactive) | > 100 µM (inactive) | > 100 µM (inactive) | > 100 µM | > 100 µM (inactive) | > 100 µM (inactive) | 46.5 µM (inactive) | 64.3 µM (inactive) | > 100 µM (inactive) | > 100 µM (inactive) | 69.8 µM (inactive) | > 100 µM (inactive) | > 100 µM (inactive) | > 100 µM (inactive) | > 100 µM (inactive) | > 100 µM (inactive) | – | –
CC1(C)OC2OC(COC(=O)c3ccc(C#N)cc3)C3OC(C)(C)OC3C2O1 (stereo unspecified) | > 75 µM (inactive) | > 75 µM (inactive) | > 75 µM (inactive) | > 75 µM (inactive) | > 75 µM (inactive) | > 75 µM | > 75 µM (inactive) | 61 µM (inactive) | > 75 µM (inactive) | > 75 µM (inactive) | – | > 75 µM (inactive) | > 75 µM (inactive) | > 75 µM (inactive) | > 75 µM (inactive) | > 75 µM (inactive) | > 75 µM (inactive) | > 75 µM (inactive) | > 75 µM (inactive) | > 75 µM (inactive)
CC1=C(C(=O)OCCc2ccc([N+](=O)[O-])cc2)C(c2cccc([N+](=O)[O-])c2)C(C(=O)OC(C)C)=C(C)N1 (stereo unspecified) | 12.7 µM (inactive) | 2.62 µM (inactive) | > 100 µM (inactive) | 4.94 µM (inactive) | 44.4 µM (inactive) | 5.47 µM | 4.46 µM (inactive) | 6.75 µM (inactive) | 5.43 µM (inactive) | – | 2.86 µM (inactive) | 4.99 µM (inactive) | 5.89 µM (inactive) | 6.05 µM (inactive) | > 100 µM (inactive) | 6.49 µM (inactive) | 3.7 µM (inactive) | 4.68 µM (inactive) | 1.87 µM (inactive) | 3.49 µM (inactive)
Cc1n[nH]/c(=N\S(=O)(=O)c2ccc(/N=N/c3c(O)c(C(=O)O)cc4ccccc34)cc2)s1 | > 100 µM (inactive) | > 100 µM (inactive) | > 100 µM (inactive) | > 100 µM (inactive) | > 100 µM (inactive) | > 100 µM | > 100 µM (inactive) | > 100 µM (inactive) | > 100 µM (inactive) | – | > 100 µM (inactive) | > 100 µM (inactive) | > 100 µM (inactive) | > 100 µM (inactive) | > 100 µM (inactive) | > 100 µM (inactive) | > 100 µM (inactive) | > 100 µM (inactive) | > 100 µM (inactive) | > 100 µM (inactive)
N#Cc1c(-c2ccc(Cl)cc2)[nH]c(=O)n(C2OC(CO)C(O)C(O)C2O)c1=O (stereo unspecified) | > 100 µM (inactive) | > 100 µM (inactive) | > 100 µM (inactive) | > 100 µM (inactive) | > 100 µM (inactive) | > 100 µM | > 100 µM (inactive) | – | 54.6 µM (inactive) | 21.1 µM (inactive) | > 100 µM (inactive) | > 100 µM (inactive) | > 100 µM (inactive) | > 100 µM (inactive) | > 100 µM (inactive) | > 100 µM (inactive) | > 100 µM (inactive) | > 100 µM (inactive) | > 100 µM (inactive) | –
